From publication PMC5335563, “Proline dehydrogenase from Thermus thermophilus does not discriminate between FAD and FMN as cofactor” (Scientific Reports, 2017)
Values belong to the compound of their own block, whether it stands above or below them.

Columns and labels:
[1] = target: T1, MBP-TtProDH EE (apo-EE, reconstituted apo-EE) (Thermus thermophilus, UniProt Q72IB8, F10E/L12E, form not given); experiment: flavin fluorescence quenching titration; type: binding; details: 50 mM sodium phosphate, pH 7.4
T1 construct: gene TT_C1214; N-terminal MBP fusion kept; variant EE (F10E/L12E); E. coli BSV11 riboflavin auxotroph, apo form
T1 sequence (Q72IB8 whole entry F10E/L12E, form open, the tested form may be a part): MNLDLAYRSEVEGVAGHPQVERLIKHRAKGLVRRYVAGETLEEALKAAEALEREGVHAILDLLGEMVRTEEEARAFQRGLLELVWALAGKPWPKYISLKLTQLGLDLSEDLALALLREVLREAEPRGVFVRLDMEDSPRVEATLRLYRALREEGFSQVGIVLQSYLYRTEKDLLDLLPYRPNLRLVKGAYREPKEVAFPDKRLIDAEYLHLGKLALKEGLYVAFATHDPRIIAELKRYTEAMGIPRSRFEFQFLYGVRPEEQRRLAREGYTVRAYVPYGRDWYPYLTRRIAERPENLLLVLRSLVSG

[2] = target: T1, MBP-TtProDH EE (apo-EE, reconstituted apo-EE); experiment: flavin fluorescence quenching titration; details: very weak binding, data not shown; 200 nM riboflavin; 50 mM sodium phosphate, pH 7.4

Kd ([1]; apoenzyme titrated into 200 nM FAD): 18 ± 0.5 nM
Compound: Cc1cc2nc3c(=O)[nH]c(=O)nc-3n(C[C@H](O)[C@H](O)[C@H](O)COP(=O)(O)OP(=O)(O)OC[C@H]3O[C@@H](n4cnc5c(N)ncnc54)[C@H](O)[C@@H]3O)c2cc1C [FAD]

Kd ([1]; apoenzyme titrated into 200 nM FMN): 19.5 ± 0.8 nM
Compound: Cc1cc2nc3c(=O)[nH]c(=O)nc-3n(C[C@H](O)[C@H](O)[C@H](O)COP(=O)(O)O)c2cc1C [FMN]

Compound: Cc1cc2nc3c(=O)[nH]c(=O)nc-3n(C[C@H](O)[C@H](O)[C@H](O)CO)c2cc1C [riboflavin]
flavin fluorescence quenching titration [2]: riboflavin shows a very weak binding to the apoenzyme (data not shown)
